≈ marks a conversion by molar mass, not a printed value. Where a name gives a salt, the structure may show the parent alone.
Legend:
[1] = test system: Staphylococcus aureus 1130; assay: Antibiotic activity, broth dilution; type: cell-based; settings: broth dilution (bd), read-out: Minimum inhibitory concentration
Excerpt: (§1) The novel antibiotic of this invention has an inhibitory action against the growth of microbial organisms, both bacteria and fungi, which are pathogenic to animal and plant life and is therefore useful in suppressing the growth of such organisms. The antibiotic A23187 is useful in wash solutions for sanitation purposes, as in the cleaning of equipment, floors or furnishings of contaminated rooms or laboratories. For such purposes, the antibiotic, or a salt thereof, is conveniently formulated as a solution in one of the lower chlorinated hydrocarbons, as for example, chloroform. […] The preparation of such formulations is readily accomplished by methods known in the art. The antibiotic can be employed in a wide range of concentrations. Because of its relatively high activity, concentratons of 100 to 500 parts per million are generally adequate for most purposes. The letters bd refer to broth dilution and the letters ad refer to agar dilution.

Erysipelas insidiosa = assay: Antibiotic activity, broth dilution; type: cell-based; settings: broth dilution (bd), read-out: Minimum inhibitory concentration
Excerpt: as §1

Pasteurella multocida = assay: Antibiotic activity, broth dilution; type: cell-based; settings: broth dilution (bd), read-out: Minimum inhibitory concentration
Excerpt: as §1

[2] = test system: Streptococcus faecalis 80; assay: Antibiotic activity, broth dilution; type: cell-based; settings: Enterococcus faecalis, broth dilution (bd), read-out: Minimum inhibitory concentration
Excerpt: as §1

[3] = test system: Staphylococcus aureus 3055; assay: Antibiotic activity, broth dilution; type: cell-based; settings: broth dilution (bd), read-out: Minimum inhibitory concentration
Excerpt: as §1

Mycoplasma gallisepticum = assay: Antibiotic activity, broth dilution; type: cell-based; settings: Mycoplasmoides gallisepticum, broth dilution (bd), read-out: Minimum inhibitory concentration
Excerpt: as §1

Pasteurella hemolytica = assay: Antibiotic activity, broth dilution; type: cell-based; settings: broth dilution (bd), read-out: Minimum inhibitory concentration
Excerpt: as §1

Solubility = type: physicochemical
Acute toxicity in mice = settings: mouse, in vivo, ip, administered intraperitoneally
Description: The acute toxicity of antibiotic A23187 in mice, expressed as LD50, is about 10 mg/kg of body weight when the antibiotic is administered intraperitoneally.

Pullularia sp. = assay: Antibiotic activity, agar dilution; type: cell-based; settings: agar dilution (ad), read-out: Minimum inhibitory concentration
Excerpt: as §1

Penicillium expansum = assay: Antibiotic activity, agar dilution; type: cell-based; settings: agar dilution (ad), read-out: Minimum inhibitory concentration
Excerpt: as §1

Cladosporium resinae = assay: Antibiotic activity, agar dilution; type: cell-based; settings: Amorphotheca resinae, agar dilution (ad), read-out: Minimum inhibitory concentration
Excerpt: as §1

Glomerella cingulata = assay: Antibiotic activity, agar dilution; type: cell-based; settings: Colletotrichum gloeosporioides, agar dilution (ad), read-out: Minimum inhibitory concentration
Excerpt: as §1

Helminthosporium sativum = assay: Antibiotic activity, agar dilution; type: cell-based; settings: agar dilution (ad), read-out: Minimum inhibitory concentration
Excerpt: as §1

Candida albicans = assay: Antibiotic activity, agar dilution; type: cell-based; settings: agar dilution (ad), read-out: Minimum inhibitory concentration
Excerpt: as §1

Lactobacillus casei = assay: Antibiotic activity, agar dilution; type: cell-based; settings: Lacticaseibacillus casei, agar dilution (ad), read-out: Minimum inhibitory concentration
Excerpt: as §1

Mycobacterium avium = assay: Antibiotic activity, agar dilution; type: cell-based; settings: agar dilution (ad), read-out: Minimum inhibitory concentration
Excerpt: as §1

Leuconostoc citrovorum = assay: Antibiotic activity, agar dilution; type: cell-based; settings: agar dilution (ad), read-out: Minimum inhibitory concentration
Excerpt: as §1

[4] = test system: Trichophyton mentagrophytes; assay: Antibiotic activity, agar dilution; type: cell-based; settings: agar dilution (ad), read-out: Minimum inhibitory concentration
Excerpt: as §1

Ceratostomella ulmi = assay: Antibiotic activity, agar dilution; type: cell-based; settings: Ophiostoma ulmi, agar dilution (ad), read-out: Minimum inhibitory concentration
Excerpt: as §1

Colletotrichum pisi = assay: Antibiotic activity, agar dilution; type: cell-based; settings: agar dilution (ad), read-out: Minimum inhibitory concentration
Excerpt: as §1

Bacillus subtilis = assay: Antibiotic activity, agar dilution; type: cell-based; settings: agar dilution (ad), read-out: Minimum inhibitory concentration
Excerpt: as §1

Botrytis cinerea = assay: Antibiotic activity, agar dilution; type: cell-based; settings: agar dilution (ad), read-out: Minimum inhibitory concentration
Excerpt: as §1

[5] = test system: Saccharomyces pastorianus; assay: Antibiotic activity, agar dilution; type: cell-based; settings: agar dilution (ad), read-out: Minimum inhibitory concentration
Excerpt: as §1

[6] = Affinity for divalent cations (complex formation); type: binding
Excerpt: Another characteristic feature of A23187 is its ability to form complexes with certain divalent cations. In experiments to determine the affinity of A23187 for such cations, the following order of reactivity is seen: […]

Electrometric titration = type: physicochemical; settings: 90% dimethylsulfoxide; electrometric titration in 90 percent dimethylsulfoxide
Description: The molecular weight, calculated from titration data, is approximately 550. A23187 is optically active, having a specific rotation, [α]D^25, of […], at a concentration of 1% in chloroform.

In the case of `CNc1ccc2oc(C[C@H]3O[C@@]4(CC[C@H]3C)O[C@H]([C@H](C)C(=O)c3ccc[nH]3)[C@H](C)C[C@H]4C)nc2c1C(=O)O` [Antibiotic A23187], the MIC [1] is reported as 0.048 µg/mL (≈ 0.0917 µM), the MIC (Erysipelas insidiosa) is reported as under 0.048 µg/mL and the MIC (Pasteurella multocida) is reported as 0.39 µg/mL (≈ 0.745 µM). The MIC [2] was 0.097 µg/mL (≈ 0.185 µM), the MIC [3] was 0.78 µg/mL (≈ 1.49 µM) and the MIC (Mycoplasma gallisepticum) was 1.56 µg/mL (≈ 2.98 µM). For the same compound, the MIC (Pasteurella hemolytica) was 12.5 µg/mL (≈ 23.9 µM), the solubility in water (Solubility) was “relatively insoluble in water” and the LD50 (Acute toxicity in mice) was about 10 mg/kg. The MIC (Pullularia sp.) was 1.56 µg/mL (≈ 2.98 µM), the MIC (Penicillium expansum) was 6.25 µg/mL (≈ 11.9 µM) and the MIC (Cladosporium resinae) was 6.25 µg/mL (≈ 11.9 µM). For the same compound, the MIC (Glomerella cingulata) was 100 µg/mL (≈ 191 µM), the MIC (Helminthosporium sativum) was 25 µg/mL (≈ 47.7 µM) and the MIC (Candida albicans) was 25 µg/mL (≈ 47.7 µM). For the same compound, the MIC (Lactobacillus casei) was 0.78 µg/mL (≈ 1.49 µM), the MIC (Mycobacterium avium) was 0.4 µg/mL (≈ 0.764 µM) and the MIC (Leuconostoc citrovorum) was 0.2 µg/mL (≈ 0.382 µM). It also gave an MIC [4] of 0.78 µg/mL (≈ 1.49 µM), an MIC (Ceratostomella ulmi) of 6.25 µg/mL (≈ 11.9 µM) and an MIC (Colletotrichum pisi) of 6.25 µg/mL (≈ 11.9 µM). The MIC (Bacillus subtilis) was 0.2 µg/mL (≈ 0.382 µM), the MIC (Botrytis cinerea) was 1.56 µg/mL (≈ 2.98 µM) and the MIC [5] was 1.56 µg/mL (≈ 2.98 µM). The “affinity for Be^+^+” value [6] was “moderate affinity”, the “affinity for Cd^+^+” value [6] was “appreciable affinity” and the “affinity for Co^+^+” value [6] was “moderate affinity”. The “affinity for Hg^+^+” value [6] was “no apparent affinity”, the “affinity for Ni^+^+” value [6] was “moderate affinity” and the “affinity for Zn^+^+” value [6] was “moderate affinity”. For the same compound, the “order of reactivity (affinity) for divalent cations” value ([6]; Mn, Ca, Mg, Sr, Ba cations) was “Mn^+^+ >> Ca^+^+ = Mg^+^+ > Sr^+^+ > Ba^+^+” and the “ionophorous properties, specificity” value ([6]; divalent cations) was “high specificity for divalent cations”.

In the case of `CNc1ccc2oc(CC3OC4(CCC3C)OC(C(C)C(=O)c3ccc[nH]3)C(C)CC4C)nc2c1C(=O)O` (stereo not drawn) [mixed calcium-magnesium salt of A23187], the “solubility in the lower alkyl ketones” value (Solubility; acetone, methylethyl ketone, diethyl ketone and the like) is reported as “very soluble”, the “solubility in the lower alcohols” value (Solubility; methanol, ethanol, isopropanol and the like) is reported as “very slightly soluble” and the “solubility in esters formed with the lower alkyl carboxylic acids and lower alcohols” value (Solubility; methyl acetate, ethyl acetate, methyl propionate, amyl acetate, methyl butyrate and the like) is reported as “very soluble”. The “solubility in the lower alkyl chlorinated hydrocarbons” value (Solubility; methylene chloride, chloroform, dichloroethane and the like) was “very soluble”, the solubility in hydrocarbons (Solubility; pentane, hexane, heptane and the like) was “insoluble” and the solubility in water (Solubility) was “insoluble”. It also gave a pKa (Electrometric titration) of 6.9.
